# Measured values taken from US9409952B2, “Peptide-compound cyclization method” (Chugai Seiyaku Kabushiki Kaisha, priority 2011, dated 2016).
# Read-outs that look alike come from different tables or passages of the source. Starred links: 1 amine or outer side, 2 acyl side, 3 side chain; linkers in the order of their positions; H or OH if unused. Positions of bridges follow the written chain, without caps; N, C: chain ends. Non-standard residues stand in square brackets, D forms with d. Residues, ends and D or L forms follow the SMILES beside them. *: point of attachment. Phe(3-(CH2)4CO) = O=C([C@H](Cc1cccc(CCCCC(=O)[*:3])c1)N[*:1])[*:2]; NMePhe(3-Cl) = CN[C@@H](Cc1cccc(Cl)c1)C(=O)O; NMeF = CN[C@@H](Cc1ccccc1)C(=O)O; NMeGABA = CN(CCCC(=O)[*:2])[*:1]; NMeI = CC[C@H](C)[C@H](NC)C(=O)O; NMeβAla = CN(CCC(=O)[*:2])[*:1]; NMeL = CN[C@@H](CC(C)C)C(=O)O; NMeV = CN[C@H](C(=O)O)C(C)C; NMeS = CN[C@@H](CO)C(=O)O; NMeA = CN[C@@H](C)C(=O)O; Piperidide = C1CCN(*)CC1; dNMeA = CN[C@H](C)C(=O)O; β3hA = C[C@H](N)CC(=O)O; Sar = CNCC(=O)O; tBu = CC(C)(C)*
# What was measured:
# [1] = PAMPA (parallel artificial membrane permeability assay); format: in vitro ADME; settings: PAMPA
# Summary of the method: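 Artificial membrane was 10% (w/v) egg lecithin plus 0.5% (w/v) cholesterol in dodecane on a PVDF filter. A 10 mM DMSO stock was added at 0.5% (v/v) to donor buffer (50 mM MOPSO, pH 6.5, 5.0% glycocholic acid). After 18 h at 37 °C, LC/MS or LC/UV gave donor and acceptor levels for Pe.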
# [2] = Metabolic stability in human hepatic microsome; format: in vitro ADME; settings: microsomes
# [3] = membrane permeation rate (Pe), 50 mM MOPSO buffer pH 6.5 with 5.0% glycocholic acid, 37° C., 18 hours, read-out: iPAMPA Pe
# [4] = pH 7.4, human hepatic microsome, NADPH(+), read-out: CL NADPH(+)
Structure (SMILES),"Papp at 18 hours, 50 µM [1, 3] [×10⁻⁶ cm/s]","microsomal CLint at 1 uM [2, 4] [µL/min/mg]","Papp at 18 hours, 50 µM ([1]; pH 6.5) [×10⁻⁶ cm/s]","microsomal CLint at 1 uM ([2]; human, pH 7.4, CL NADPH(+)) [µL/min/mg]"
CC(C)C[C@H]1C(=O)N(C)[C@@H](CC(C)C)C(=O)N(C)[C@@H](CC(C)C)C(=O)N[C@H](C(=O)N2CCCCC2)CC(=O)N(C)CCC(=O)N[C@@H]([C@@H](C)O)C(=O)N(C)[C@@H](C)C(=O)N(C)[C@@H](Cc2ccccc2)C(=O)N(C)[C@@H](Cc2ccccc2)C(=O)NCC(=O)N1C [DP-174] ([NMeβAla]T[NMeA][NMeF][NMeF]G[NMeL][NMeL][NMeL]D-Piperidide; lactam N-10),22,66,–,–
CC[C@H](C)[C@@H]1NC(=O)[C@H](Cc2ccccc2)N(C)C(=O)[C@H]([C@@H](C)O)NC(=O)[C@@H](C)NC(=O)C[C@@H](C(=O)N(C)[C@@H](Cc2ccccc2)C(=O)N[C@@H](C)C(=O)N2CCCCC2)NC(=O)[C@H](CC(C)C)N(C)C(=O)[C@H](CC(C)C)N(C)C(=O)[C@H](Cc2ccccc2)N(C)C(=O)[C@H](CC(C)C)N(C)C(=O)[C@H](C)N(C)C1=O [DP-189] ([dA]T[NMeF]I[NMeA][NMeL][NMeF][NMeL][NMeL]D[NMeF]A-Piperidide; lactam N-10),1.4,3,–,–
CC(C)C[C@H]1C(=O)N(C)[C@@H](CC(C)C)C(=O)N[C@@H]([C@@H](C)O)C(=O)N(C)[C@@H](Cc2ccccc2)C(=O)N[C@@H](COC(C)(C)C)C(=O)N(C)[C@@H](CC(C)C)C(=O)N[C@H](C(=O)N2CCCCC2)CC(=O)N(C)CCC(=O)N1C [DP-705] ([NMeβAla][NMeL][NMeL]T[NMeF]S(tBu)[NMeL]D-Piperidide; lactam N-8),49,265,–,–
CC[C@H](C)[C@@H]1NC(=O)[C@H](CC(C)C)N(C)C(=O)CN(C)C(=O)[C@H]([C@@H](C)O)NC(=O)[C@H](C)N(C)C(=O)C[C@@H](C(=O)N(C)[C@@H](Cc2ccccc2)C(=O)N(C)[C@@H](C)C(=O)N[C@H](C(=O)N[C@@H](C)C(=O)N2CCCCC2)C(C)C)NC(=O)[C@H](CC(C)C)N(C)C(=O)[C@H](Cc2ccccc2)N(C)C(=O)[C@H](CC(C)C)N(C)C1=O [DP-660] ([NMeA]T[Sar][NMeL]I[NMeL][NMeF][NMeL]D[NMeF][NMeA]VA-Piperidide; lactam N-9),27,222,–,–
CC[C@H](C)[C@@H]1NC(=O)[C@H](Cc2ccccc2)NC(=O)[C@H](C(C)C)N(C)C(=O)CCCN(C)C(=O)C[C@@H](C(=O)N2CCCCC2)NC(=O)[C@H](Cc2ccccc2)NC(=O)[C@H](CC(C)C)N(C)C(=O)CNC(=O)[C@H](CC(C)C)N(C)C(=O)[C@H](C)N(C)C(=O)[C@H]([C@@H](C)O)NC(=O)[C@H](CC(C)C)NC1=O [DP-273] ([NMeGABA][NMeV]FILT[NMeA][NMeL]G[NMeL]FD-Piperidide; lactam N-12),–,–,21,102
CC[C@H](C)[C@H]1C(=O)N[C@H](C(=O)N2CCCCC2)CC(=O)N(C)[C@H](C)C(=O)N[C@@H](Cc2ccccc2)C(=O)N(C)[C@@H](C)C(=O)N(C)[C@@H](CC(C)C)C(=O)N[C@@H]([C@@H](C)O)C(=O)N(C)CC(=O)N(C)[C@@H](C(C)C)C(=O)N[C@@H](C)C(=O)N1C [DP-142] ([dNMeA]F[NMeA][NMeL]T[Sar][NMeV]A[NMeI]D-Piperidide; lactam N-10),–,–,4,22
CC(C)C[C@@H]1NC(=O)[C@H](CC(C)C)N(C)C(=O)[C@H](C(C)C)NC(=O)[C@H](CC(C)C)N(C)C(=O)CN(C)C(=O)[C@H](CC(C)C)NC(=O)[C@H](CO)N(C)C(=O)[C@H](CC(C)C)N(C)C(=O)[C@H](CC(C)C)N(C)C(=O)C[C@H](C)NC(=O)[C@@H](CC(C)C)NC1=O [DP-642] (cyclo(L[Sar][NMeL]V[NMeL]L[dL][β3hA][NMeL][NMeL][NMeS])),32,65,–,–
C=C1CCC(=O)N[C@@H](CC(C)C)C(=O)N(C)[C@@H](CC(C)C)C(=O)N(C)[C@@H]([C@@H](C)CC)C(=O)N[C@@H](C)C(=O)N(C)[C@@H](Cc2ccccc2)C(=O)N[C@@H]([C@@H](C)O)C(=O)N(C)CC(=O)N(C)[C@@H](Cc2ccccc2)C(=O)N(C)[C@@H](CC(C)C)C(=O)N[C@H](C(=O)N2CCCCC2)Cc2ccc1cc2 [DP-864],2.3,171,–,–
CC[C@H](C)[C@H]1C(=O)N[C@H](C(=O)N(C)[C@@H](Cc2ccccc2)C(=O)N(C)[C@@H](Cc2ccccc2)C(=O)N[C@@H](C)C(=O)N2CCCCC2)CC(=O)N(C)CC(=O)N(C)[C@@H](C)C(=O)N[C@@H]([C@@H](C)O)C(=O)N(C)[C@@H](C)C(=O)N(C)[C@@H](CC(C)C)C(=O)N(C)[C@@H](Cc2ccccc2)C(=O)N[C@@H](C(C)C)C(=O)N(C)[C@@H](CC(C)C)C(=O)N1C [DP-302] ([Sar][NMeA]T[NMeA][NMeL][NMeF]V[NMeL][NMeI]D[NMeF][NMeF]A-Piperidide; lactam N-10),–,–,18,102
CC[C@H](C)[C@@H]1NC(=O)[C@H](Cc2ccccc2)NC(=O)[C@H]([C@@H](C)O)NC(=O)CCN(C)C(=O)C[C@@H](C(=O)N2CCCCC2)NC(=O)[C@H](Cc2ccccc2)NC(=O)[C@H](Cc2ccccc2)NC(=O)CNC(=O)[C@H](CC(C)C)N(C)C(=O)[C@H](CC(C)C)NC1=O [DP-423] ([NMeβAla]TFIL[NMeL]GFFD-Piperidide; lactam N-10),15,110,–,–
CC[C@H](C)[C@@H]1NC(=O)[C@H](CC(C)C)N(C)C(=O)[C@H](CC(C)C)N(C)C(=O)[C@H](C)N(C)C(=O)[C@H]([C@@H](C)O)NC(=O)[C@H](C(C)C)N(C)C(=O)[C@H](Cc2ccccc2)NC(=O)CN(C)C(=O)[C@H](C)N(C)C(=O)C[C@@H](C(=O)N2CCCCC2)NC1=O [DP-439] ([NMeA][Sar]F[NMeV]T[NMeA][NMeL][NMeL]ID-Piperidide; lactam N-10),34,139,–,–
CC[C@H](C)[C@@H]1NC(=O)[C@H](Cc2ccccc2)N(C)C(=O)[C@H](CC(C)C)N(C)C(=O)[C@H](Cc2ccccc2)NC(=O)[C@H](C)N(C)C(=O)[C@H]([C@@H](C)O)NC(=O)[C@H](C(C)C)NC(=O)[C@@H](C(C)C)NC(=O)C[C@@H](C(=O)N(C)[C@@H](Cc2ccccc2)C(=O)N[C@H](C(=O)N(C)[C@@H](C)C(=O)N(C)[C@@H](CC(C)C)C(=O)N[C@H](C(=O)N2CCCCC2)[C@@H](C)CC)C(C)C)NC1=O [DP-935] ([dV]VT[NMeA]F[NMeL][NMeF]ID[NMeF]V[NMeA][NMeL]I-Piperidide; lactam N-9),0.1,29,–,–
CC(C)C[C@@H]1NC(=O)[C@@H]2CCCN2C(=O)[C@H](Cc2ccccc2)N(C)C(=O)[C@H](C)N(C)C(=O)[C@H]([C@@H](C)O)NC(=O)[C@@H](C(C)C)NC(=O)C[C@@H](C(=O)N2CCCCC2)NC(=O)[C@H](CC(C)C)N(C)C(=O)[C@H](C)N(C)C(=O)[C@H](Cc2ccccc2)NC(=O)[C@H](C(C)C)N(C)C1=O [DP-146] ([dV]T[NMeA][NMeF]PL[NMeV]F[NMeA][NMeL]D-Piperidide; lactam N-11),–,–,26,52
CC[C@H](C)[C@@H]1NC(=O)[C@H](Cc2ccccc2)NC(=O)[C@@H]2CCCN2C(=O)[C@H](CC(C)C)N(C)C(=O)[C@H](Cc2ccccc2)NC(=O)[C@H](CC(C)C)NC(=O)[C@H]([C@@H](C)O)NC(=O)[C@H](C)N(C)C(=O)[C@H](C(C)C)NC(=O)CCCCc2cccc(c2)C[C@@H](C(=O)N2CCCCC2)NC(=O)[C@H](CC(C)C)NC(=O)CN(C)C1=O [DP-900] (V[NMeA]TLF[NMeL]PFI[Sar]L[Phe(3-(CH2)4CO)]-Piperidide; lactam N-12),1.3,244,–,–
CC[C@H](C)[C@H](NC(=O)[C@H](Cc1ccccc1)N(C)C(=O)[C@H](C)N(C)C(=O)[C@@H](NC(=O)[C@@H]1CC(=O)N[C@@H](C)C(=O)N[C@@H]([C@@H](C)O)C(=O)N(C)[C@@H](CC(C)C)C(=O)N[C@@H](C(C)C)C(=O)N(C)[C@@H](Cc2cccc(Cl)c2)C(=O)N(C)[C@@H](CC(C)C)C(=O)N[C@@H](Cc2ccccc2)C(=O)N1)[C@@H](C)CC)C(=O)N1CCCCC1 [DP-928] (AT[NMeL]V[NMePhe(3-Cl)][NMeL]FDI[NMeA][NMeF]I-Piperidide; lactam N-8),0.1,60,–,–
CC[C@H](C)[C@@H]1NC(=O)[C@H](C)N(C)C(=O)[C@H]([C@@H](C)O)NC(=O)CN(C)C(=O)[C@H](C)N(C)C(=O)[C@H](C)NC(=O)[C@H](C)N(C)C(=O)[C@@H](C)N(C)C(=O)C[C@@H](C(=O)N(C)[C@@H](Cc2ccccc2)C(=O)N(C)[C@@H](Cc2ccccc2)C(=O)N[C@@H](C)C(=O)N2CCCCC2)NC(=O)[C@H](Cc2ccccc2)N(C)C1=O [DP-508] ([dNMeA][NMeA]A[NMeA][Sar]T[NMeA]I[NMeF]D[NMeF][NMeF]A-Piperidide; lactam N-10),2.5,11,–,–
CC[C@H](C)[C@H]1C(=O)N(C)[C@@H](CC(C)C)C(=O)N[C@H](C(=O)N2CCCCC2)CC(=O)N(C)CCCC(=O)N(C)[C@@H](Cc2ccccc2)C(=O)N[C@@H](Cc2ccccc2)C(=O)N2CCC[C@H]2C(=O)N[C@@H](CC(C)C)C(=O)N(C)[C@@H](C(C)C)C(=O)N[C@@H]([C@@H](C)O)C(=O)N(C)CC(=O)N[C@@H](C)C(=O)N1C [DP-225] ([NMeGABA][NMeF]FPL[NMeV]T[Sar]A[NMeI][NMeL]D-Piperidide; lactam N-12),16,32,–,–
CC[C@H](C)[C@H]1C(=O)N[C@@H]([C@@H](C)O)C(=O)N[C@@H](CC(C)C)C(=O)N[C@H](C(=O)N2CCCCC2)CC(=O)N[C@H](C)C(=O)N(C)[C@@H](CC(C)C)C(=O)N(C)[C@@H](CC(C)C)C(=O)N(C)[C@@H](Cc2ccccc2)C(=O)N(C)[C@@H](CC(C)C)C(=O)N(C)[C@@H](Cc2ccccc2)C(=O)N[C@@H](C)C(=O)N1C [DP-228] ([dA][NMeL][NMeL][NMeF][NMeL][NMeF]A[NMeI]TLD-Piperidide; lactam N-11),5.2,28,–,–
